Oligonucleotides are written 5' to 3', each unit as a sugar letter and its base; * is a phosphorothioate linkage, no mark a phosphodiester; rarer units and linkages stand in square brackets, end groups in braces. Plain capitals give the bases only. k = constrained ethyl (cEt); [5mC] = 5-methylcytosine; d = 2'-deoxy (DNA)
Assays:
[1] = test system: AR mRNA; assay: Dose-dependent antisense inhibition of human AR in HuVEC cells (electroporation, qRT-PCR RTS3559, IC50); assay type: cell-based; settings: for inhibition of AR mRNA at 46.9 nM: 46.9 nM ASO; for inhibition of AR mRNA at 187.5 nM: 187.5 nM ASO; for inhibition of AR mRNA at 750.0 nM: 750.0 nM ASO; for inhibition of AR mRNA at 3000.0 nM: 3000.0 nM ASO
Procedure, shortened: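 HuVEC cells dosed with antisense oligonucleotides by electroporation and treated approximately 16 hours. AR mRNA quantified by real-time qPCR with primer probe set RTS3559 and normalised to total RNA by RIBOGREEN; IC50 from dose-response.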

[2] = test system: AR mRNA; assay: Antisense inhibition of human AR in HuVEC cells, single concentration (electroporation, qRT-PCR RTS3559); assay type: cell-based
Procedure, shortened: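 AR mRNA levels were measured with human primer-probe set RTS3559 and adjusted for total RNA (RIBOGREEN). Cells were HuVEC, with each antisense oligonucleotide delivered by electroporation at one concentration.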

[3] = Table 36, 46.9 nM, HuVEC, electroporation, approximately 16 hours
[4] = Table 36, 187.5 nM, HuVEC, electroporation, approximately 16 hours
[5] = Table 36, 750.0 nM, HuVEC, electroporation, approximately 16 hours
[6] = Table 36, 3000.0 nM, HuVEC, electroporation, approximately 16 hours
[7] = Table 36, HuVEC, electroporation, approximately 16 hours
[8] = Table 25, 1,000 nM oligonucleotide, electroporation, approximately 24 hours, relative to untreated control
[9] = Table 27, 1,000 nM oligonucleotide, electroporation, approximately 24 hours, relative to untreated control
[10] = Table 28, 1,000 nM oligonucleotide, electroporation, approximately 24 hours, relative to untreated control
[11] = 46.9 nM, HuVEC, ~16 h, Table 15
[12] = 187.5 nM, HuVEC, ~16 h, Table 15
[13] = 750.0 nM, HuVEC, ~16 h, Table 15
[14] = 3000.0 nM, HuVEC, ~16 h, Table 15

| Substance | percent inhibition of AR, 46.9 nM [1, 3] | percent inhibition of AR, 187.5 nM [1, 4] | percent inhibition of AR, 750.0 nM [1, 5] | percent inhibition of AR, 3000.0 nM [1, 6] | IC50 [1, 7] | % inhibition [2, 8] | % inhibition ([2]; 1,000 nM ASO, ~24 h, Table 26) | % inhibition [2, 9] | % inhibition [2, 10] | percent inhibition of AR [1, 11] | percent inhibition of AR [1, 12] | percent inhibition of AR [1, 13] | percent inhibition of AR [1, 14] | IC50 ([1]; HuVEC cells, electroporation) | inhibition of AR mRNA at 46.9 nM ([1]; HuVEC cells, electroporation) | inhibition of AR mRNA at 187.5 nM ([1]; HuVEC cells, electroporation) | inhibition of AR mRNA at 750.0 nM ([1]; HuVEC cells, electroporation) | inhibition of AR mRNA at 3000.0 nM ([1]; HuVEC cells, electroporation) | IC50 ([1]; HuVEC, ~16 h, Table 15) | % inhibition ([2]; 1,000 nM ASO, ~24 h, Table 13) |
| --- | --- | --- | --- | --- | --- | --- | --- | --- | --- | --- | --- | --- | --- | --- | --- | --- | --- | --- | --- | --- |
| 584245 (kA*kG*kG*dT*dT*dA*dG*dG*dG*dA*dG*dT*dA*kG*kG*k[5mC]; antisense) [compound 584245] | 4% | 33% | 69% | 90% | 320 nM | 70% |  |  |  |  |  |  |  |  |  |  |  |  |  |  |
| 584263 (kT*kA*kG*dG*dG*dT*dT*dT*dG*dG*dT*d[5mC]*dA*kG*kA*kA; antisense) [compound 584263] | 9% | 24% | 67% | 90% | 340 nM | 56% |  |  |  |  |  |  |  |  |  |  |  |  |  |  |
| 584274 (kG*kT*kT*dA*dT*d[5mC]*dT*dT*dA*d[5mC]*dT*d[5mC]*dT*k[5mC]*k[5mC]*k[5mC]; antisense) [compound 584274] | 17% | 36% | 74% | 93% | 230 nM | 70% |  |  |  |  |  |  |  |  |  |  |  |  |  |  |
| 584329 (kG*kG*kT*dT*dA*dT*dG*dG*dT*dT*d[5mC]*dT*dG*kT*k[5mC]*kT; antisense) [compound 584329] | 0% | 17% | 67% | 86% | 460 nM |  | 58% |  |  |  |  |  |  |  |  |  |  |  |  |  |
| 584361 (k[5mC]*kT*kT*d[5mC]*dA*dT*dT*dG*d[5mC]*dA*dG*dG*dT*k[5mC]*kT*kG; antisense) [compound 584361] | 0% | 18% | 71% | 87% | 410 nM |  | 61% |  |  |  |  |  |  |  |  |  |  |  |  |  |
| 584469 (kT*kT*kT*dG*dG*dT*dA*dA*d[5mC]*dA*dT*dT*dA*kG*kG*k[5mC]; antisense) [compound 584469] | 13% | 46% | 73% | 89% | 220 nM |  |  | 74% | 63% |  |  |  |  |  |  |  |  |  |  |  |
| 584495 (kA*kT*kG*dG*dT*dT*dG*dT*d[5mC]*d[5mC]*dT*dG*dT*kA*k[5mC]*kA; antisense) [compound 584495] | 0% | 14% | 55% | 74% | 650 nM |  |  | 58% | 53% |  |  |  |  |  |  |  |  |  |  |  |
| 586224 (kT*kT*kG*kA*kT*dT*dT*dA*dA*dT*dG*dG*dT*kT*kG*k[5mC]; antisense) [compound 586224] |  |  |  |  |  |  |  |  |  | 39% | 75% | 93% | 98% | 50 nM | 39% | 75% | 93% | 98% | 50 nM | 90% |
| 586225 (kG*kT*kT*kG*kA*dT*dT*dT*dA*dA*dT*dG*dG*kT*kT*kG; antisense) [compound 586225] |  |  |  |  |  |  |  |  |  | 17% | 61% | 89% | 97% | 130 nM | 17% | 61% | 89% | 97% | 130 nM | 88% |
